Assay results reported in US20080146538A1, “Compounds 614” (priority 2006, published 2008).
Counter-ions that a name gives are not always drawn.

Assays:
human NK2 receptor = molecular target: T1, human NK2 receptor (Homo sapiens, UniProt P21452); assay: FLIPR assay, inhibition of human NK2 receptor activation (intracellular Ca2+); type: cell-based
T1 construct: expressed in transfected cells
T1 sequence (P21452 1-398): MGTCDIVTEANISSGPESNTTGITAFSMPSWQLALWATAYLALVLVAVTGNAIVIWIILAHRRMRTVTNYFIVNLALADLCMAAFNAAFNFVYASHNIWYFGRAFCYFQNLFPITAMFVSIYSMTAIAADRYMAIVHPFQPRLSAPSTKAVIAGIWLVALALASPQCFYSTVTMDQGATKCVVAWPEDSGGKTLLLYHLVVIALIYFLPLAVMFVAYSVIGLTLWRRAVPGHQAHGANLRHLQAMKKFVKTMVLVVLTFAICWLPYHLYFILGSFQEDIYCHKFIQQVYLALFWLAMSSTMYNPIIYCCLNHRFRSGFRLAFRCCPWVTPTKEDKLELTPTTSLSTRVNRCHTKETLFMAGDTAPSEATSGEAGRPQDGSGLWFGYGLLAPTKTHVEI
Method: (§1) Chinese Hamster Ovary (CHO) K1 cells (obtained from ATCC) were stably transfected with the human NK2 receptor (hNK2R cDNA in pRc/CMV, Invitrogen) or the human NK3 receptor (hNK3R in pcDNA 3.1/Hygro (+)/IRES/CD8, Invitrogen vector modified at AstraZeneca EST-Bio UK, Alderley Park). The cells were transfected with the cationic lipid reagent LIPOFECTAMINE™ (Invitrogen) and selection was performed with Geneticin (G418, Invitrogen) at 1 mg/ml for the hNK2R transfected cells and with Hygromycin (Invitrogen) at 500 μg/ml for the hNK3R transfected cells. Single cell clones were collected by aid of Fluorescence Activated Cell Sorter (FACS), tested for functionality in a FLIPR assay (see below), expanded in culture and cryopreserved for future use. […]
(§2) The activity of a compound of the invention to inhibit NK1/NK2/NK3 receptor activation measured as NK1/NK2/NK3 receptor mediated increase in intracellular Ca^2+ was assessed by the following procedure:
(§3) CHO cells stably transfected with human NK1, NK2 or NK3 receptors were plated in black walled/clear bottomed 96-well plates (Costar 3904) at 3.5×10^4 cells per well and grown for approximately 24 h in normal growth media in a 37° C. […] The response was measured as the peak relative fluorescence after agonist addition and IC50s were calculated from ten-point concentration-response curves for each compound. […]

[1] = molecular target: hERG-encoded potassium channel (Homo sapiens, UniProt Q12809); assay: Activity against hERG (planar-array-based voltage clamp); type: cell-based
Source text: The activity of compounds according to formula I against the hERG-encoded potassium channel can be determined according to Kiss L, et al. Assay Drug Dev Technol. 1 (2003), 127-35: “High throughput ion-channel pharmacology: planar-array-based voltage clamp”.

[2] = Metabolic stability in liver microsomes (intrinsic clearance); type: in vitro ADME; settings: human, pH 7.4, HLM
Method: The metabolic stability of compounds according to formula I can be determined as described below: The rate of biotransformation can be measured as either metabolite(s) formation or the rate of disappearance of the parent compound. The experimental design involves incubation of low concentrations of substrate (usually 1.0 μM) with liver microsomes (usually 0.5 mg/ml) and taking out aliquotes at varying time points (usually 0, 5, 10, 15, 20, 30, 40 min.). The test compound is usually dissolved in DMSO. The DMSO concentration in the incubation mixture is usually 0.1% or less since more solvent can drastically reduce the activities of some CYP450s. Incubations are done in 100 mM potassium phosphate buffer, pH 7.4 and at 37° C. Acetonitrile or methanol is used to stop the reaction. The parent compound is analysed by HPLC-MS. From the calculated half-life, t1/2, the intrinsic clearance, Clint, is estimated by taking microsomal protein concentration and liver weight is into account.

human NK1 receptor = molecular target: T2, human NK1 receptor (Homo sapiens, UniProt P25103); assay: FLIPR assay, inhibition of human NK1 receptor activation (intracellular Ca2+); type: cell-based
T2 construct: Human NK1 receptor cDNA (obtained from RNA-PCR from lung tissue) was subcloned into pRcCMV (Invitrogen); expressed in transfected cells
Method: as §1, §2, §3

human NK3 receptor = molecular target: T3, human NK3 receptor (Homo sapiens, UniProt P29371); assay: FLIPR assay, inhibition of human NK3 receptor activation (intracellular Ca2+); type: cell-based
T3 construct: expressed in transfected cells
T3 sequence (P29371 1-465): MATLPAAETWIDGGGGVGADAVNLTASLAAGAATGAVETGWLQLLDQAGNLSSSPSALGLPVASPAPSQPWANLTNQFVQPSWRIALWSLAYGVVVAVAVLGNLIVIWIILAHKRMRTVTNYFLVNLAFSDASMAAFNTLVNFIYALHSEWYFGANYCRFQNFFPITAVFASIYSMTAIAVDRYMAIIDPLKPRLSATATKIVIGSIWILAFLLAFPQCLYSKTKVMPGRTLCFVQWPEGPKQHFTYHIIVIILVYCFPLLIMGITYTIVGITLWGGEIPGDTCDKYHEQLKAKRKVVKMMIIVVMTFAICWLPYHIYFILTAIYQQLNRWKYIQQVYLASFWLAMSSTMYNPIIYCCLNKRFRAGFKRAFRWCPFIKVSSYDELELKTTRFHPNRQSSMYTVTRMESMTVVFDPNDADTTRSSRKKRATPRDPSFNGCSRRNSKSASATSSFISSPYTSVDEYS
Method: as §1, §2, §3

T2 sequence (P25103 whole entry): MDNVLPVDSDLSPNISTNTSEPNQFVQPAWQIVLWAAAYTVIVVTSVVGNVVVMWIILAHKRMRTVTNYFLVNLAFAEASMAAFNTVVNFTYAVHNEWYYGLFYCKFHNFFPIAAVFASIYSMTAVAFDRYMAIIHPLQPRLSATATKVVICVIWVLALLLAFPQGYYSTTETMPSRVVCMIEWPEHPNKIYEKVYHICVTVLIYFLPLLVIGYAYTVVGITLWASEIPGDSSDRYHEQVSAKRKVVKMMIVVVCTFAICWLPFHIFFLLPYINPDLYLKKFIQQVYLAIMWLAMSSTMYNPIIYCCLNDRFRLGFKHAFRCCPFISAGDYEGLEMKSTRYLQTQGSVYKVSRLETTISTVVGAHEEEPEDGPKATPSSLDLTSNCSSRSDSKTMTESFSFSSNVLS
Sequence of hERG-encoded potassium channel (Q12809 whole entry): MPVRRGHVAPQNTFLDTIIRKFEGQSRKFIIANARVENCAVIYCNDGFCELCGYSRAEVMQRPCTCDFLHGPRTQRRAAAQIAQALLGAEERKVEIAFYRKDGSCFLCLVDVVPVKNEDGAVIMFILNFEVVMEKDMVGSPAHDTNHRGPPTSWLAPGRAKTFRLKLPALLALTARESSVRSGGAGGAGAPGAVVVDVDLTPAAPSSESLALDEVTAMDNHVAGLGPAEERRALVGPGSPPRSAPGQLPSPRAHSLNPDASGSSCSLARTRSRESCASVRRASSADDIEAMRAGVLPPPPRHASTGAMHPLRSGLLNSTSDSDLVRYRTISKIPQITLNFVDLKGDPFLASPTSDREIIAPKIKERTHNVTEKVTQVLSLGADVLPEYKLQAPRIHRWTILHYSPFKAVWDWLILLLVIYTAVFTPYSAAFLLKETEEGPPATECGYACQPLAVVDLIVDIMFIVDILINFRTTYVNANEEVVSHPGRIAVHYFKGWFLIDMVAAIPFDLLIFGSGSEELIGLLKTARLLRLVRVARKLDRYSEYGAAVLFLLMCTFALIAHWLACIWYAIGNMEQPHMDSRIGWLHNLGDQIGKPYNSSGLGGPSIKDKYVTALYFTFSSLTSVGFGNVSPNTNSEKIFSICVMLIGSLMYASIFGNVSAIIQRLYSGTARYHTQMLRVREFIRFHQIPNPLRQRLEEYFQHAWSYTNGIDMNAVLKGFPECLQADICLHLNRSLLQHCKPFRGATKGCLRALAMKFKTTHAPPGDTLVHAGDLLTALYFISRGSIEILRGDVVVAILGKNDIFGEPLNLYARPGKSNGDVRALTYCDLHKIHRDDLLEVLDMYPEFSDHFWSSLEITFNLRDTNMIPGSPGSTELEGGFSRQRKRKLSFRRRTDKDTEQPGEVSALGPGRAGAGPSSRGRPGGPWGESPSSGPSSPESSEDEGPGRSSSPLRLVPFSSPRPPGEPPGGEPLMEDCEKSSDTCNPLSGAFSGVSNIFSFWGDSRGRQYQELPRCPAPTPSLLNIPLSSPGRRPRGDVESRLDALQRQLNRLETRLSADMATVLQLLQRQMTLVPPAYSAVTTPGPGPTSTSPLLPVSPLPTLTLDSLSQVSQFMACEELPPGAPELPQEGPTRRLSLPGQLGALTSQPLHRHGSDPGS

Structure (SMILES): CN(C[C@@H](CCN1CC(N2[C@@H]3CC[C@H]2CC(O)C3)C1)c1ccc(F)cc1)C(=O)c1cc(Br)cc(C(F)(F)F)c1 (stereo partly drawn) [Ex 1, exo-3-Bromo-N-((2S)-2-(4-fluorophenyl)-4-{3-(3-hydroxy-8-azabicyclo[3.2.1]oct-8-yl)azetidin-1-yl}butyl)-N-methyl-5-(trifluoromethyl)benzamide dihydrochloride]
- Kb (human NK2 receptor): 7.94 nM
- IC50 [1]: 13000 nM
- microsomal CLint at 1 μM [2]: 28 µL/min/mg
- Kb (human NK1 receptor): 7.94 nM
- Kb (human NK3 receptor): 12.6 nM
